{"source": "patent US20130085461A1", "about": "“Method for Pre-Debriding Treatment of Non-Viable Skin Tissue and Compositions and System Thereof” (BIOMEDICAL CONCEPTS LLC, priority 2011, published 2013)", "origin": "cited, not measured here", "biological_target": "T1, rat tail Type I collagen (Rattus norvegicus, UniProt P02454+P02466)", "T1 construct": "host or cells: rat tail (tissue), as reported in the cited work", "T1 sequence (P02454 152-1207 limits assumed)": "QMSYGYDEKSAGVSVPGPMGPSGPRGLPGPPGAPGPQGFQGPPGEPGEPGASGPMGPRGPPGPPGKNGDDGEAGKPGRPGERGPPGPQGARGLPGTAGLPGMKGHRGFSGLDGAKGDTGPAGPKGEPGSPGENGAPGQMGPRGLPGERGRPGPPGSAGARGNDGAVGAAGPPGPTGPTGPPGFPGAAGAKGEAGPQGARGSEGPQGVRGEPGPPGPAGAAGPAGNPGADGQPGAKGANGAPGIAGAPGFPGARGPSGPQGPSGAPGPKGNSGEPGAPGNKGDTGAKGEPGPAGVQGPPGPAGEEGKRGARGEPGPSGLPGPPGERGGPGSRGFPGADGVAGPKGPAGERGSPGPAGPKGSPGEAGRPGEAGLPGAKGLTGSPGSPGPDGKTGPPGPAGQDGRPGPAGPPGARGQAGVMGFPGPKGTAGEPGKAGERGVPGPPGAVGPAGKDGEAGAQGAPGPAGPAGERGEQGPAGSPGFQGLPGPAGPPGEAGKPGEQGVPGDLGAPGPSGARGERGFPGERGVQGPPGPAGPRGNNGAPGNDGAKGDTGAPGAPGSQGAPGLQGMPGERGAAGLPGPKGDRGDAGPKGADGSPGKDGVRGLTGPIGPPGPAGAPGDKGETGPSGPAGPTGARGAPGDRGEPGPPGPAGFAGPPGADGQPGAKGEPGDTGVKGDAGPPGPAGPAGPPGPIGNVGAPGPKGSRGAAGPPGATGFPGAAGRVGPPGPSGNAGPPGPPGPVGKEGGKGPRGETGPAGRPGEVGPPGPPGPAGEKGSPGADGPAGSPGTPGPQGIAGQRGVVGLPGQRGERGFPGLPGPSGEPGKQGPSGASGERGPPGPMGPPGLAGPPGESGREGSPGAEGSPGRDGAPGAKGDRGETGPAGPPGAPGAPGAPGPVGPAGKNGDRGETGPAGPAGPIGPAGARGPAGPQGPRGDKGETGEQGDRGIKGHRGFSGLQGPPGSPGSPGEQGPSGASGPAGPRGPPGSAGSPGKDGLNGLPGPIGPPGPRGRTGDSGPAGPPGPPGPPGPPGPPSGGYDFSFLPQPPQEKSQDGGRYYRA", "T1 sequence (P02466 86-1125 limits assumed)": "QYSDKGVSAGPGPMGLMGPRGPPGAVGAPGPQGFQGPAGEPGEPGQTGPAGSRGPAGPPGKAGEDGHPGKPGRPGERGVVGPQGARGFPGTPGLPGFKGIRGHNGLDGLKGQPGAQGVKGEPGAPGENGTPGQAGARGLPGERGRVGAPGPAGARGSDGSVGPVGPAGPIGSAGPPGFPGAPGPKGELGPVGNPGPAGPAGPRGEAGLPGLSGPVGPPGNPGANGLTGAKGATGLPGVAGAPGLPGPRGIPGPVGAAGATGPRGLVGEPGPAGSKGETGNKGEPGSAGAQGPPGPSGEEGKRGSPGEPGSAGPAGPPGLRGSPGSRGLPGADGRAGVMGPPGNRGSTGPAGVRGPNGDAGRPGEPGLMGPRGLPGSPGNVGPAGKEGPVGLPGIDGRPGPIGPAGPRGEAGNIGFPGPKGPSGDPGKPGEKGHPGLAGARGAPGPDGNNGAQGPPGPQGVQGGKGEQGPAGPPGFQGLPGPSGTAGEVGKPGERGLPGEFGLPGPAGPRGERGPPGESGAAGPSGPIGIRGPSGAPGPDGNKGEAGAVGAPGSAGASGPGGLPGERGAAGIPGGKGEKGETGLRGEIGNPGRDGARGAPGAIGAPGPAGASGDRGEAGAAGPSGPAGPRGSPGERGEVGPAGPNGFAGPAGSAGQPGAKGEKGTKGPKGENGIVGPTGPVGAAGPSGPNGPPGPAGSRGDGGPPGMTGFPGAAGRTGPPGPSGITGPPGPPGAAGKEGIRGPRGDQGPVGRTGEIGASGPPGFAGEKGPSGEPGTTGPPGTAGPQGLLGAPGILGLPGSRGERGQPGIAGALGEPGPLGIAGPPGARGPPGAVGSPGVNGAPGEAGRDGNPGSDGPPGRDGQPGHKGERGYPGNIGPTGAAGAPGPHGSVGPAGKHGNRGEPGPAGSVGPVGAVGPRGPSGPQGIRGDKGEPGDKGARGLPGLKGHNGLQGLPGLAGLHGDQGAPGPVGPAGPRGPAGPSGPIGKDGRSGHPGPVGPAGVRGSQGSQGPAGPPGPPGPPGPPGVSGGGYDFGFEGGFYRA", "conditions": "non-viable rat tail Type I collagen", "note": "Like-named read-outs stand apart in the source and are kept apart here.", "data": [{"smiles": "NC(N)=O", "note": "[urea]", "values": [{"measurement": "reduction of denaturation temperature (Tm=67.5° C.)", "setting": "3M", "value": 13.5, "unit": "°C"}]}, {"smiles": "CCCO", "note": "[n-propanol]", "values": [{"measurement": "reduction of denaturation temperature (Tm=67.5° C.)", "setting": "10 mole %", "value": 3.5, "unit": "°C"}]}]}
